Source: patent US20210023223A1, “HYDROCARBON / LIPID - CAROTENOID COMPLEXES” (IP SCIENCE LIMITED, priority 2018, published 2021)

Legend:
Melting time at 37° C. [1] = type: physicochemical; conditions: 1 mg per 1 g of the chocolate; control 19 minutes
Method: (§1) Approximately 20 mg of butter, or pork fat, or beef fat, or cocoa butter, or chocolate, with or without certain concentrations of carotenoids, were placed on the surface of the laboratory slides and incubated at 37° C. in a laboratory incubator (TLK39).
Results presented in FIG. 15 show three different carotenoids—lycopene, lutein and astaxanthin, can reduce, albeit to a different degree, the melting time of dark chocolate regardless of its tempering protocols: Protocol I—28° C., Protocol II—29° C., Protocol III—30° C.

[2] = Defrosting time of frozen oil; type: physicochemical
Method: To determined defrosting time, frozen oil aliquots of 200 μI were incubated at ambient temperature of 20±2 C° until they were completely melted. Period of time, which was required for the tested sample to be melted, was measured with a laboratory timer (QUANTUM).

[3] = Size of lipid droplets of dairy butter, microscopy; type: physicochemical
Text: (§2) For measurement of lipid droplets and fat globules and quantification of their size binocular microscope Olympus BX41 was used with Cell^B software for morphometric analysis. All parameters were collected from 10 randomly selected microscopic fields at ×1000).
Incorporation of lycopene into the butter led to a significant increase in the size of its lipid droplets and many reached more than 100 or even 300 fold of their diameter. This effect was dose-dependent, and can already be observed for less than 1 molecule of lycopene to 224,000 molecules of butter triglycerides.

[4] = system: healthy volunteers, facial skin; experiment: Astaxanthin trial, residual skin surface components (RSSC); type: in vivo, human; conditions: 4 mg daily, 4 weeks
Method: Group I—31 (17 male and 14 female subjects, 40-80 years of age) for astaxanthin intervention;
Group I—participants received 4 mg daily doses of formulated astaxanthin,
Daily dose of each carotenoid product was taken in one capsule with the main evening meal for 4 weeks (from day 1 to day 28 of the study).
For RSSC sample collection all participants of the study were requested to avoid facial hygienic manipulations for 24 hours before material collection, which was carried out in the morning. These samples were collected only before initiation of astaxanthin supplementation (day 0) and at the end of the study (day 29). RSSC sample collection and preparation was performed according to previously described procedures. Briefly, RSSC samples were collected using polyester swabs from the surface of the facial skin (the sides of the nose). During the procedure two samples were taken (one swab per side). Each collected sample was placed on the surface of a microscope slide. A second microscope slide was pressed against the surface of the first one. […] All slides with collected samples (i.e. four slides per study participant per time point) were coded to provide sample anonymity for blinded analysis. All collected samples were sent to the laboratory of Lycotec Ltd for further processing and eventual microscopic examination.
For morphological analysis of RSSC samples one slide of the first pair was stained with hematoxylin and eosin in order to identify any cells or cell remnants. The second slide was stained using Oil Red O (Lipid Stain, ab150678, Abcam, Cambridge, UK) for lipid visualization and lipid droplet size evaluation. One slide from the other pair was stained with crystal violet solution (Gram staining) to assess the level of microorganism presence. The remaining slides were kept unstained for possible future use.
All stained smears were examined microscopically by a highly experienced cytopathologist. Microscopy was performed using Olympus BX41 laboratory microscope (Olympus, Japan) at ×1000 magnification.
The analysis included examining 40 fields of view within one smear. Dark field microscopy was applied for lipid crystal visualization. […]
The analysis of typical structural elements of the RSSC comprised lipid droplet measurements, counting characteristic lipid crystals and desquamated corneocytes, and evaluation of bacterial presence as previously described. The indicated micro objects/structures were quantified using Cell^B imaging software (Digital Imaging Solutions, Olympus, Japan). […]
In the morphological analysis of the RSSC quantitatively assessed parameters comprised lipid droplet size, numbers of desquamated corneocytes and lipid crystals and bacterial presence estimates (using Bacterial Presence Assessment Scale as described in our previous paper).

[5] = Oil volume needed to cover water surface; type: physicochemical; conditions: 100 ml water sample; unmodified oil 21.5 ml
Text: The other way to assess changes in oil viscosity, caused by carotenoids, would be to measure how much oil would be needed to cover a water surface of the same size. The lower viscosity of the oil the more spreadable it will be, and consequently less of it would be needed to cover this surface. Therefore, by measuring how much oil would be required to cover a certain surface of water we can asses how deep changes in the lipid folding were made by incorporating carotenoids.
An additional nine heating experiments were carried out when either pure Napolina olive oil, Napolina olive oil containing Astaxanthin (7 mg/ml), or Napolina olive oil containing Lycopene (7 mg/ml) was carefully poured over the surface of the water in order to prevent evaporation. The amount of oil required to completely cover the surface of the 100 ml water sample in the cup (diameter—7.4 cm) was measured (15 ml Falcon laboratory tubes and 1 ml Pipetman pitettes were used) and recorded for each oil type. The thickness of the resulting oil film (necessary to completely cover water surface) was then calculated. Temperature change curves were compared for uncovered water and water samples overlayed with three varieties of oil at heating temperatures of 200° C., 250° C. and 300° C. Water samples overlaid with oils were heated until water reached boiling point (usually at 99° C.). […]

[6] = Size of beef fat globules, microscopy; type: physicochemical
Text: For measurement of lipid droplets and fat globules and quantification of their size binocular microscope Olympus BX41 was used with Cell^B software for morphometric analysis. All parameters were collected from 10 randomly selected microscopic fields at ×1000). In case of beef fat, lycopene incorporation led to a smaller increase of its fat globules, only by 30%, FIG. 3.

Melting time at 37° C. [7] = type: physicochemical; conditions: 0.3 mg per 1 g of butter
Method: as §1

[8] = Heating olive oil-in-water emulsions; type: physicochemical
[9] = Size of pork fat globules, microscopy; type: physicochemical
Method: as §2
When carotenoids were added to animal fat, with a relatively high percentage of saturated fatty acid, a similar trend in increased fat globules was observed, although to a lesser degree. The maximum doses of lycopene or astaxanthin caused a similar increase in the pork fat globules diameter, only 50%, FIG. 2 and table 3.

[10] = Spreadability of fat drops on hard surface (viscosity); type: physicochemical
Method: The described above enlargement of lipid droplets or fat globules, caused by carotenoids, translated into reduction of the viscosity of their product. This could be visually observed without any instrumentation—the larger surface area is covered by spreading a drop of oil or molten fat to lower the viscosity of this food mass.
When astaxanthin was added to the dairy butter reduction its viscosity could be visually observed After measuring and comparing the size of the spread drops this decrease was estimated to be about 3, (FIG. 5).

SMILES: CC1=C(/C=C/C(C)=C/C=C/C(C)=C/C=C/C=C(C)/C=C/C=C(C)/C=C/C2=C(C)C(=O)[C@@H](O)CC2(C)C)C(C)(C)C[C@H](O)C1=O [Astaxanthin, astaxanthin]
- Melting time of dark chocolate (Melting time at 37° C. [1]): 5 min
- Reduction of thawing time of Olive oil ([2]; 0.3 mg per 1 ml of the oil): 11 fold
- Thawing time of frozen Olive oil ([2]; 0.3 mg per 1 ml of the oil, controls 60 (lycopene) and 48 seconds (astaxanthin)): 4.3 s
- Reduction of thawing time of Sunflower oil ([2]; 0.3 mg per 1 ml the oil): above 3 fold
- Size of butter lipid droplets, Mean ([3]; astaxanthin dose 0.1 per 30 g of butter): 7.44 µm
- Size of butter lipid droplets, Mean ([3]; astaxanthin dose 0.5 per 30 g of butter): 9.23 µm
- Size of butter lipid droplets, Mean ([3]; astaxanthin dose 1.0 per 30 g of butter): 12.4 µm
- Size of butter lipid droplets, Mean ([3]; astaxanthin dose 2.0 per 30 g of butter): 14.7 µm
- Size of butter lipid droplets, Mean ([3]; astaxanthin dose 3.5 per 30 g of butter): 12.2 µm
- Size of butter lipid droplets, Mean ([3]; astaxanthin dose 7.0 per 30 g of butter): 25 µm
- Size of butter lipid droplets, Mean ([3]; astaxanthin dose 10.0 per 30 g of butter): 34.1 µm
- Corneocyte desquamation levels at the end of the study ([4]; P=0.0075): clearly reduced in most volunteers
- Lipid droplet size, day 29 vs day 0 ([4]; subgroup of obese subjects): statistically significant (P=0.0214) increase
- Lipid droplet size, day 29 vs day 0 ([4]; whole group, P=0.0683): has not reached statistical significance
- Microbial presence in RSSC samples ([4]; whole volunteer group): statistically significant (P=0.0367) decrease
- Oil volume needed to cover the surface of the water [5]: 15 mL
- Increase of beef fat globules diameter [6]: 2.5 folds
- Reduction of melting time of dairy butter (Melting time at 37° C. [7]): more than 3.5 fold
- Melting time of dairy butter (Melting time at 37° C. [7]; control 140 seconds): 38 s
- Rate of heating of olive oil emulsion in water in the first 3 minutes ([8]; 50%:50%, 1 molecule lycopene to 67,000 or astaxanthin to 71,000 fatty acids, control 10° C.): 23 °C
- Maximum temperature the emulsion could reach ([8]; water to olive oil 75%:25%, control 62° C.): 90 °C
- Size of pork fat globules, Mean ([9]; astaxanthin dose 0.1 per 30 g of pork fat): 5.687 μm
- Size of pork fat globules, Mean ([9]; astaxanthin dose 0.5 per 30 g of pork fat): 4.937 μm
- Size of pork fat globules, Mean ([9]; astaxanthin dose 1.0 per 30 g of pork fat): 5.333 μm
- Size of pork fat globules, Mean ([9]; astaxanthin dose 2.0 per 30 g of pork fat): 6.812 μm
- Size of pork fat globules, Mean ([9]; astaxanthin dose 3.5 per 30 g of pork fat): 8.307 μm
- Size of pork fat globules, Mean ([9]; astaxanthin dose 7.0 per 30 g of pork fat): 7.9 μm
- Size of pork fat globules, Mean ([9]; astaxanthin dose 10.0 per 30 g of pork fat): 8.692 μm
- Increase in the pork fat globules diameter ([9]; maximum doses): 50%
- Decrease of dairy butter viscosity from size of the spread drops [10]: about 3

SMILES: CC1=C[C@H](O)CC(C)(C)[C@H]1/C=C/C(C)=C/C=C/C(C)=C/C=C/C=C(C)/C=C/C=C(C)/C=C/C1=C(C)C[C@@H](O)CC1(C)C [Lutein, lutein]
- Melting time of dark chocolate (Melting time at 37° C. [1]): 6 min
